Measurements published in patent US20260000642A1 (Tay Therapeutics Limited, priority 2022, published 2026).
“Also recorded” adds a separate entry of the source. Read-outs that look alike come from different tables or passages of the source.

Assays:
BRD4 BD2 = molecular target: T1, BRD4 BD2 (Homo sapiens, UniProt O60885); test: NanoBRET bromodomain assay, NanoLuc-BRD4-BD2 fusion vector in HEK293 cells; assay type: cell-based
T1 construct: HEK293 cells were transfected using NanoLuc-BRD4-BD1 or NanoLuc-BRD4-BD2 fusion vectors; host or cells: HEK293
Description: Bromodomain Assay Procedure

[1] = Plasma stability assay, human plasma; assay type: in vitro ADME; settings: 37° C., Method 1 (5 μM)
[2] = Beagle dog PK study 1 (IV and PO, propylene glycol-based formulation); assay type: in vivo; settings: for concentration at 0.25 h / concentration at 0.5 h / concentration at 1 h / concentration at 2 h / concentration at 4 h / concentration at 8 h / concentration at 24 h: beagle, dog, plasma, po, 5 mg/kg
Procedure: (§1) The purpose of this study was to examine the pharmacokinetics of Example 101 in beagle dogs. […] An oral PK study was also undertaken in Lewis rats—see Experimental Method C.
(§2) Body weight was recoded prior to dosing, and detailed clinical observations were made prior to dosing and throughout the study, as needed.
Subsequently, 17.320 mL Vitamin E TPGS was added, and the solution was vortexed and sonicated. Then, 51.960 mL water was added, and solution was then heated. […] Subsequently, 39.894 mL Vitamin E TPGS was added, and the solution was vortexed and sonicated. Then, 119.682 mL water was added, and the solution was heated.
(§3) Blood samples (˜0.3 mL) were collected according to a schedule (detailed below) by venipuncture of peripheral veins except for the dosing vein, and EDTA-K2 was used as anticoagulant. Within 30 minutes of collection, the samples were centrifuged at approximately 2000× g for 10 minutes at 4° C. to obtain blood plasma. The plasma samples were immediately divided into two aliquots (˜75 μL each), transferred to a cryogenic vial, and stored in a freezer at −75±15° C. prior to analysis.
Blood samples were collected at 0.25, 0.5, 1, 2, 4, 8, and 24 h following the initial dosing (0 h).
(§4) The experiments were conducted on a Shimadzu DGU-20A5R and AB API 5500+LC/MS/MS instrument with an Agilent Poroshell EC-C18 4 μm (50×2.1 mm) column. A gradient of 95% water (0.1% formic acid)/95% acetonitrile (0.1% formic acid) was used as the mobile phase. The sample injection volume was 1 μL, and the flow rate was 0.6 mL/min. The gathered data were used for pharmacokinetic calculations using T½, C0, AUClast, AUCinf, MRTinf, CI, Vss, and Number of Points for Regression as parameters.

[3] = Beagle dog PK study 2 (IV, HPβCD based formulation); assay type: in vivo
Procedure: as §1, §2
78.646 mL of HPβCD (20% solution w/v) was then added with vortex and sonication.
as §3, with “(shown” for “(detailed”
Blood samples were collected at 0.083, 0.25, 0.5, 1, 2, 4, 8, and 24 h following the initial dosing (0 h).
as §4

IL-17A = test: Human PBMC assay, IL-17A by ELISA (CD2/CD3/CD28 bead stimulation); assay type: cell-based; settings: 72 hours
Procedure: CD2, CD3, and CD28 antibody-coated beads from the T-cell activation/expansion kit (Miltenyi Biotec) were added to the PBMC at a bead-to-cell ratio of 1:2. The mixture of PBMCs and beads were seeded into the wells of the round-bottom 96-well plate at a concentration of 2×10^5 cells/well in a total volume of 200 μL. The cells were cultured for 72 hours at 37° C. and 5% CO2 and then supernatants were collected and IL-17A and IL-22 levels were measured by ELISA. […] The final compound concentration ranged from 30,000 nM to 0.005 nM and the final DMSO concentration per well was 0.3%. PBMCs were seeded at approximately […] in the wells of the 96-well tissue culture plate in a total volume of 190 μL. The plate was incubated for 1 hour at 37° C. and 5% CO2. […] The cells were then cultured for 24 hours at 37° C. and 5% CO2. The supernatant was collected and CXCL10 levels were measured by ELISA.

[4] = PK study 1, PO 5 mg/kg, Test Animal 1, read-out: Plasma concentration
[5] = PK study 1, PO 5 mg/kg, Test Animal 2, read-out: Plasma concentration
[6] = PK study 1, PO 5 mg/kg, Test Animal 3, read-out: Plasma concentration
[7] = PK study 1, PO 5 mg/kg, read-out: Average plasma concentration, Mean

**Q.** What does the source list for `CNC(=O)c1[nH]c(C(=O)NC2CCC2)cc1O[C@@H](C)c1ccccc1` [Example 101, N^5-cyclobutyl-N^2-methyl-3-(1-phenylethoxy)-1H-pyrrole-2,5-dicarboxamide]?
**A.** selectivity for BDII relative to GSK620 (BRD4 BD2): greater than about two orders of magnitude; Plasma Stability (% remaining at 120 minutes) Human [1]: 93%; AUClast/D, Mean ([2]; PK study 1, IV 1 mg/kg): 1883 (ng · h/mL)/(mg/kg); AUC—% Extrap_obs, Mean ([2]; PK study 1, IV 1 mg/kg): 0.73%; C0, Mean ([2]; PK study 1, IV 1 mg/kg): 1.512 µg/mL; Cl_obs, Mean ([2]; PK study 1, IV 1 mg/kg): 0.53 L/h/kg; Vss_obs, Mean ([2]; PK study 1, IV 1 mg/kg): 0.733 L/kg; Vss_obs ([2]; PK study 1, IV 1 mg/kg, Test Animal 1): 0.734 L/kg; Vss_obs ([2]; PK study 1, IV 1 mg/kg, Test Animal 2): 0.747 L/kg; Vss_obs ([2]; PK study 1, IV 1 mg/kg, Test Animal 3): 0.719 L/kg; AUClast/D, Mean ([2]; PK study 1, PO 5 mg/kg): 830 (ng · h/mL)/(mg/kg); AUC—% Extrap_obs, Mean ([2]; PK study 1, PO 5 mg/kg): 0.531%; F, Mean ([2]; PK study 1, PO 5 mg/kg): 44.0%; F ([2]; PK study 1, PO 5 mg/kg, Test Animal 1): 48.0%; AUClast/D ([2]; PK study 1, PO 5 mg/kg, Test Animal 3): 1000 (ng · h/mL)/(mg/kg); clinical observations after intravenous administration ([2]; beagle dogs, PK study 1, group 1 (IV), 20% propylene glycol/20% Vitamin E TPGS/60% water, individual animals): Vomitus with solid food and soft feces; also recorded: twitching of hindlimbs; also recorded: Slight twitching and lacrimation; clinical observations after oral administration ([2]; beagle dogs, PK study 1, group 2 (PO), 20% propylene glycol/20% Vitamin E TPGS/60% water): Loose feces; time post-administration at which plasma concentrations began to steadily decrease ([2]; beagle dogs, PK study 1, oral administration): approximately 1 h; tolerability in dog PK studies ([2]; beagle dogs, oral and intravenous): well tolerated; concentration at 0.25 h [2, 4]: 0.173 µg/mL; concentration at 0.25 h [2, 5]: 0.775 µg/mL; concentration at 0.25 h [2, 6]: 0.309 µg/mL; concentration at 0.25 h [2, 7]: 0.419 µg/mL; concentration at 0.5 h [2, 4]: 1.48 µg/mL; concentration at 0.5 h [2, 5]: 1.55 µg/mL; concentration at 0.5 h [2, 6]: 1.32 µg/mL; concentration at 0.5 h [2, 7]: 1.45 µg/mL; concentration at 1 h [2, 4]: 2.22 µg/mL; concentration at 1 h [2, 5]: 1.18 µg/mL; concentration at 1 h [2, 6]: 2.24 µg/mL; concentration at 1 h [2, 7]: 1.88 µg/mL; concentration at 2 h [2, 4]: 1.13 µg/mL; concentration at 2 h [2, 5]: 0.621 µg/mL; concentration at 2 h [2, 6]: 1.31 µg/mL; concentration at 2 h [2, 7]: 1.02 µg/mL; concentration at 4 h [2, 4]: 0.142 µg/mL; concentration at 4 h [2, 5]: 0.103 µg/mL; concentration at 4 h [2, 6]: 0.254 µg/mL; concentration at 4 h [2, 7]: 0.166 µg/mL; concentration at 8 h [2, 4]: 0.00951 µg/mL; concentration at 8 h [2, 5]: 0.0148 µg/mL; concentration at 8 h [2, 6]: 0.00952 µg/mL; concentration at 8 h [2, 7]: 0.0113 µg/mL; concentration at 24 h [2, 4]: 0.00458 µg/mL; concentration at 24 h [2, 7]: 0.00153 µg/mL; AUClast/D, Mean ([3]; PK study 2, IV 1 mg/kg): 977 (ng · h/mL)/(mg/kg); AUC—% Extrap_obs, Mean ([3]; PK study 2, IV 1 mg/kg): 0.689%; C0, Mean ([3]; PK study 2, IV 1 mg/kg): 1.875 µg/mL; Cl_obs, Mean ([3]; PK study 2, IV 1 mg/kg): 1.1 L/h/kg; Vssz_obs, Mean ([3]; PK study 2, IV 1 mg/kg): 0.864 L/kg; Average plasma concentration, Mean ([3]; PK study 2, IV 1 mg/kg, 24 h): BLOQ; Vssz_obs ([3]; PK study 2, IV 1 mg/kg, Test Animal 1): 0.838 L/kg; Vssz_obs ([3]; PK study 2, IV 1 mg/kg, Test Animal 2): 0.886 L/kg; Vssz_obs ([3]; PK study 2, IV 1 mg/kg, Test Animal 3): 0.868 L/kg; clinical observations after intravenous administration ([3]; beagle dogs, PK study 2, IV, 0.5 mg/mL in HPβCD (20% solution w/v)/DMSO (99/1)): soft feces; IC50 for IL-17A relative to GSK620 (IL-17A): substantially lower 1050
